Columns and labels:
Caco-2 cell monolayers = assay: Bidirectional transport across Caco-2 cell monolayers; conditions: for lowest effective dosage for inhibiting efflux transport of silybin: silybin 10 μM; for PA-B: human, Caco-2, 180 min; for mean efflux ratio (PB-A/PA-B): silybin alone, no inhibitor
Method: Human colorectal adenocarcinoma-2 (Caco-2) cells was obtained from American Type Culture Collection (Manassas, Va.) and frozen at −80° C. For transport study, cells were cultured at 37° C./5% CO2 in Dulbecco's modified Eagle's medium supplemented with 10% fetal bovine serum, 1% nonessential amino acids, and 1% penicillin-streptomycin. […] The culture medium was changed 24 hours after seeding to remove cell debris and dead cells; after which the medium was changed on alternate days. Monolayers were used for transport assays between 21 and 23 days for Caco-2 cells. Prior to transport study, cell monolayers were certified based on internal criteria on transepithelial electrical resistance (TEER) values.
Prior to transport study, cell monolayers were certified based on our internal criteria on transepithelial electrical resistance (TEER) values, and only monolayers that met the acceptance criteria (transepithelial electrical resistance >500 Ω·cm^2 for Caco-2 cells and >200 Ω·cm^2 for MDCK cells) were selected for transport studies.
Bidirectional transport assays in human colorectal adenocarcinoma 2 (Caco-2) and Madin-Darby canine kidney II (MDCK II) was carried out by dosing substrates in assay buffer to either the apical chamber (A-to-B) or the basolateral chamber (B-to-A); cells were then incubated at 37° C. with shaking at 50 rotations per minute (rpm), and 100 μl samples were collected at 30, 60, 90, 120 and 180 minutes from the basolateral chamber to study the drug transport of AP to BL, or apical chamber to study the drug transport of BL to AP. Cell monolayers were then washed twice with ice-cold assay buffer and lysed with methanol on ice for 10 minutes. For inhibition studies, Caco-2 or MDCK II cell monolayers were pre-incubated with an inhibitor in both apical and basolateral chambers for 30 minutes, and bidirectional transport of 10 μM silybin was conducted in the absence (control) or presence of the inhibitor in both chambers. […] For fluorescence intensity detection, samples collected from AP or BL side were immediately detected in 96 well black plate by Microplate ultraviolet-visible spectroscopy (UV/VIS) spectrophotometer (TECAN infinite M200 PRO, Männedorf, Switzerland). In all cases, each determination was performed in triplicate.
The apparent permeability coefficients (Papp) were calculated as Papp=dQ/dt×1/(C“0”A) where dQ/dt (mM/sec) is the rate of permeation of the drug across the cells, C0 (millimolar (mM)) is the donor compartment concentration at time zero and A (cm^2) is the area of the cell monolayer. C0 is obtained from analysis of the dosing solution at the start experiment. Efflux Ratio (ER)=Papp (B to A)/Papp (A to B), while Papp (B−A) is the Papp value measured in the B to A direction, and Papp (A−B) is the Papp value measured in the A to B direction. 1.5 Preparation of Rat Sandwich-Cultured Hepatocytes

MRP2 = MRP2 (Homo sapiens, UniProt Q92887); type: in vitro ADME; design: host or cells: MDCKII (Madin-Darby canine kidney II); conditions: for mean net efflux ratio: Caco-2
Chain of MRP2 (Q92887 whole entry): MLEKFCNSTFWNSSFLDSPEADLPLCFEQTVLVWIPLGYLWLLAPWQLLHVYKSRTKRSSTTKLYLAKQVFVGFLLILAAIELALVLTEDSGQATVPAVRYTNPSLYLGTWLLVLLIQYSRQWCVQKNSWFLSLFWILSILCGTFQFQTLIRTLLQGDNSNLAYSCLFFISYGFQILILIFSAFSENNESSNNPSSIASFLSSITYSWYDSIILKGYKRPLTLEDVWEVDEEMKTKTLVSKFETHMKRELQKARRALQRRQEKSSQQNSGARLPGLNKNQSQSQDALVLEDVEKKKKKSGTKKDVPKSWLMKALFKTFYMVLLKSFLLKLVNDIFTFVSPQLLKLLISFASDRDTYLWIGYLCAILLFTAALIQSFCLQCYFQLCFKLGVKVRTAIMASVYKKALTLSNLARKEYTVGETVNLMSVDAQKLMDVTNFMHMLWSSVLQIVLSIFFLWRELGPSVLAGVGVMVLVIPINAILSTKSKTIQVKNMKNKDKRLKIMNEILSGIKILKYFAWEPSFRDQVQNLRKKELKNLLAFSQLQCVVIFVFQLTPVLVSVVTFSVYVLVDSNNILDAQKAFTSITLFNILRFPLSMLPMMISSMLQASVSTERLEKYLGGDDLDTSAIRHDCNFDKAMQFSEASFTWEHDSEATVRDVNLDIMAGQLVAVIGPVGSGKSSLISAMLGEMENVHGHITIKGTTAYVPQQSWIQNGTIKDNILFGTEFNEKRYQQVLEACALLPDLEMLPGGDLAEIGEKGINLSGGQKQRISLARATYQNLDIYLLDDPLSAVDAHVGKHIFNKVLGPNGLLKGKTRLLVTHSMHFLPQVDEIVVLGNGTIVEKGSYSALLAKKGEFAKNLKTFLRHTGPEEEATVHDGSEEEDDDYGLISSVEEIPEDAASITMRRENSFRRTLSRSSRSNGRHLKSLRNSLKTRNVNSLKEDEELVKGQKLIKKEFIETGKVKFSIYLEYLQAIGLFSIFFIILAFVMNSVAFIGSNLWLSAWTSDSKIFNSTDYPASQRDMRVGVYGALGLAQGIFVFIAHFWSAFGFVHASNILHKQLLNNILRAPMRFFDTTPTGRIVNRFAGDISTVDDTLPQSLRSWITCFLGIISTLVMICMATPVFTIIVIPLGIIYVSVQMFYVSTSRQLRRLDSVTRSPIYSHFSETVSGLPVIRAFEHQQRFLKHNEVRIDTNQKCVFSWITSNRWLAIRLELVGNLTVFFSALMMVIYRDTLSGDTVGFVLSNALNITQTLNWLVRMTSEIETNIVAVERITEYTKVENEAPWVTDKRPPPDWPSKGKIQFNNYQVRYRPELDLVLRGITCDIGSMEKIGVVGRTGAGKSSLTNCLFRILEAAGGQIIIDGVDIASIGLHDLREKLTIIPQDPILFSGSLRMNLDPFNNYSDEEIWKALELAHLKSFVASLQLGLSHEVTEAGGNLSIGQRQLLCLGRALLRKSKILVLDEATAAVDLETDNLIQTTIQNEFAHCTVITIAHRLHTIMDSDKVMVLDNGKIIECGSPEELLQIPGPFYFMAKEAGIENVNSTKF
Method: (§1) In all cases, each determination was performed in triplicate.
(§2) 1.5 Preparation of Rat Sandwich-Cultured Hepatocytes

MDR1 (P-gp) = MDR1 (P-gp) (Homo sapiens, UniProt P08183); assay: Transport of silybin across MDCKII-MDR1 cells; conditions: for net efflux ratio: absence of any inhibitor
Chain of MDR1 (P-gp) (P08183 whole entry): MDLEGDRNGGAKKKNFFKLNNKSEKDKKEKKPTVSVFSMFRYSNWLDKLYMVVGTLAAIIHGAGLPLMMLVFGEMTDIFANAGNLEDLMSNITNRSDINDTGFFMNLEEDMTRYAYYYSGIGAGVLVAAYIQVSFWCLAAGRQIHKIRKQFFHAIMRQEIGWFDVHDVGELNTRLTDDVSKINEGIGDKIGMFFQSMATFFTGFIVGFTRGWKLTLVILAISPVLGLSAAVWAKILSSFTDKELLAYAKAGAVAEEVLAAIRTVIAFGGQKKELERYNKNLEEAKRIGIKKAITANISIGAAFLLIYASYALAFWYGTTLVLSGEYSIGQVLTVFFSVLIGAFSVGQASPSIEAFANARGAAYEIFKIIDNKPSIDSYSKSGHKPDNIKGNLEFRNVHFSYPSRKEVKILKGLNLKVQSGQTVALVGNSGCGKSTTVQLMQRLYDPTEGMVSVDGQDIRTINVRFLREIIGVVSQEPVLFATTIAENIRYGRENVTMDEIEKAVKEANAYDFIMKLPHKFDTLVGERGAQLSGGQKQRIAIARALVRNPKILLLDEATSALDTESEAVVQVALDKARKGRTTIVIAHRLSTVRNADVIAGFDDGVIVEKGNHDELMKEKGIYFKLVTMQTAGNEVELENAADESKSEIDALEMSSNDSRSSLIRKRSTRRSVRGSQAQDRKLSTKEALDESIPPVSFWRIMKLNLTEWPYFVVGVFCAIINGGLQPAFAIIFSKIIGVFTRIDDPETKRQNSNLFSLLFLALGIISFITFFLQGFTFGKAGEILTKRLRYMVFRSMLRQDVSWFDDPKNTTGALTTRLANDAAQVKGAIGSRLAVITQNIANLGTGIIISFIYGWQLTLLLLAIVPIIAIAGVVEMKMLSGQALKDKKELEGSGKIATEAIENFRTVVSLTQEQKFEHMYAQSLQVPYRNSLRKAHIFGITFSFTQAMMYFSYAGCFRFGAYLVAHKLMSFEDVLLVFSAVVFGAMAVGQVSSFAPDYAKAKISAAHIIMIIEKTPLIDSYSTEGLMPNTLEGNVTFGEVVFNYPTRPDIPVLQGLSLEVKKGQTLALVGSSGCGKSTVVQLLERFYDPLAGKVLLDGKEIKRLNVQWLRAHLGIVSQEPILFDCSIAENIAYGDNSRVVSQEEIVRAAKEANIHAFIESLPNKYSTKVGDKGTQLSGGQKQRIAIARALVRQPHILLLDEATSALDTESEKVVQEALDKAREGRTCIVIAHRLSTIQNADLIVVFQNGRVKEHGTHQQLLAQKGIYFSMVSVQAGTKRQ
Method: Parental Madin-Darby canine kidney II (MDCKII), multi-drug resistance gene 1-Madin-Darby canine kidney II (MDR1-MDCKII), breast cancer resistance protein-Madin-Darby canine kidney II (BCRP-MDCKII), and multi-drug resistance protein 2-Madin-Darby canine kidney II (MRP2-MDCKII) cells were kindly provided by the Netherlands Cancer Institute (Amsterdam, Netherlands) and frozen at −80° C. The MDCKII cells were cultured at 37° C./5% CO2 in Dulbecco's modified Eagle's medium supplemented with 10% fetal bovine serum, 1% nonessential amino acids, and 2% penicillin-streptomycin. The cells were seeded on transwell inserts (Corning Inc.) at a density of 2.0×10^5 cells/cm^2 and grown for 4-5 days to form confluent monolayers. […]
Bidirectional transport assays in human colorectal adenocarcinoma 2 (Caco-2) and Madin-Darby canine kidney II (MDCK II) was carried out by dosing substrates in assay buffer to either the apical chamber (A-to-B) or the basolateral chamber (B-to-A); cells were then incubated at 37° C. with shaking at 50 rotations per minute (rpm), and 100 μl samples were collected at 30, 60, 90, 120 and 180 minutes from the basolateral chamber to study the drug transport of AP to BL, or apical chamber to study the drug transport of BL to AP. […] For fluorescence intensity detection, samples collected from AP or BL side were immediately detected in 96 well black plate by Microplate ultraviolet-visible spectroscopy (UV/VIS) spectrophotometer (TECAN infinite M200 PRO, Männedorf, Switzerland). […]
The apparent permeability coefficients (Papp) were calculated as Papp=dQ/dt×1/(C“0”A) where dQ/dt (mM/sec) is the rate of permeation of the drug across the cells, C0 (millimolar (mM)) is the donor compartment concentration at time zero and A (cm^2) is the area of the cell monolayer. […] Efflux Ratio (ER)=Papp (B to A)/Papp (A to B), while Papp (B−A) is the Papp value measured in the B to A direction, and Papp (A−B) is the Papp value measured in the A to B direction. […]

MDCKII-WT cells = type: in vitro ADME, canine; conditions: for mean net efflux ratio: MDCK
Method: as §1, §2

BCRP = target: T1, BCRP (Homo sapiens, UniProt Q9UNQ0); assay: Transport of silybin across MDCKII-BCRP cells; type: in vitro ADME; design: host or cells: MDCKII (Madin-Darby canine kidney II)
T1 sequence (Q9UNQ0 1-655): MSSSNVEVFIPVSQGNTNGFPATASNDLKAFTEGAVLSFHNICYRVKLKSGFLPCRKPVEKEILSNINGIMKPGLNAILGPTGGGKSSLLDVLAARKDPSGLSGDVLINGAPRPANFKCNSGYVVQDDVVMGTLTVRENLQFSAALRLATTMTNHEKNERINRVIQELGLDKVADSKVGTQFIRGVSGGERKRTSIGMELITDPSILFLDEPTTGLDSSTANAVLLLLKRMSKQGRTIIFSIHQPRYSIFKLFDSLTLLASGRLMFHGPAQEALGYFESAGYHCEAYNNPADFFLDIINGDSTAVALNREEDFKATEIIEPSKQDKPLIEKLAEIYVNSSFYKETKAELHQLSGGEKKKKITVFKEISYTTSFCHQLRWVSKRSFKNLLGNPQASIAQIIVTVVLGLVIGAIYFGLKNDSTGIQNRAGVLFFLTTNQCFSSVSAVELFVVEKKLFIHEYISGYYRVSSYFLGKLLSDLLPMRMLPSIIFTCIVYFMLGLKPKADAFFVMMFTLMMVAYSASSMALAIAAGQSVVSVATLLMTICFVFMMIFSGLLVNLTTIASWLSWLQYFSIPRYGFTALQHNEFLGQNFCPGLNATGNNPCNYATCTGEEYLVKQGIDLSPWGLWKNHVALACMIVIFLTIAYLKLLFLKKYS
Method: as §1, §2

| mean net efflux ratio (MRP2) | net efflux ratio (MDR1 (P-gp)) | mean net efflux ratio (MDCKII-WT cells) | PA-B (Caco-2 cell monolayers) | mean efflux ratio (PB-A/PA-B) (Caco-2 cell monolayers) | net efflux ratio (BCRP) | SMILES | lowest effective dosage for inhibiting efflux transport of silybin (Caco-2 cell monolayers) | also measured |
| --- | --- | --- | --- | --- | --- | --- | --- | --- |
|  |  |  |  |  |  | O=c1cc(-c2ccccc2)oc2cc(O)c(O)c(O)c12 [baicalein] | 0.5 µM | effect on efflux of silybin (Caco-2 cell monolayers; 5 μM baicalein, silybin at 40 μM): did not affect the efflux of silybin; effect on efflux of silybin (Caco-2 cell monolayers; 5 μM baicalein, silybin concentration below 30 μM): significantly inhibited the efflux of silybin |
| 3.06 | 1.39 | 1.01 | 0.47±0.03×10^−6 cm/s | 5.05 | 2.96 | COc1cc([C@H]2Oc3cc([C@H]4Oc5cc(O)cc(O)c5C(=O)[C@@H]4O)ccc3O[C@@H]2CO)ccc1O [silybin A] |  |  |
| 3.30 | 1.20 | 0.99 | 0.45±0.02×10^−6 cm/s | 4.61 | 3.04 | COc1cc([C@@H]2Oc3cc([C@H]4Oc5cc(O)cc(O)c5C(=O)[C@@H]4O)ccc3O[C@H]2CO)ccc1O [silybin B] |  |  |
|  |  |  |  |  |  | COc1cc(C2Oc3cc([C@H]4Oc5cc(O)cc(O)c5C(=O)[C@@H]4O)ccc3OC2CO)ccc1O (stereo partly drawn) [silybin] |  | MRP2 substrate status (MRP2; dog, 180 min, 10 µM): is a MRP2 substrate; MDR1 (P-gp) substrate status (MDR1 (P-gp); dog, MDCK-MDR1, 180 min, 10 µM): is not a substrate for MDR1 (P-gp) efflux transporter; permeability of silybin in absence or presence of P-gp, MRP and BCRP efflux inhibitors (MDCKII-WT cells; Caco-2): no significant difference; BCRP substrate status (BCRP; dog, 180 min, 10 µM): is a substrate for both MRP2 and BCRP efflux proteins |
|  |  |  |  |  |  | COc1ccc(-c2cc(=O)c3c(OC)c(OC)c(OC)c(OC)c3o2)cc1 [tangeretin] | 0.05 µM | effect on efflux of silybin (Caco-2 cell monolayers; 0.5 μM tangeretin, silybin 2.5 to 40 μM): Significant inhibitory effects |
